The structures appear in SMILES notation.

Holding throughout (assay type): physicochemical
Data set [1] is described as follows: Stability assessment by HPLC after storage. The settings on record: for HPLC content, Accelerated condition (40° C./75% RH): open state; for HPLC content, Accelerated condition (40° C./75% RH) / HPLC content, Harsh condition (80° C.): in % (unit assumed); for HPLC content, Harsh condition (80° C.): sealed state, oven 80° C. On the procedure: About 10-30 mg of the sample was stored for 4 weeks in an open state under the accelerated condition (40° C., 75% RH) or in a sealed state under the harsh condition in an oven at 80° C. [table]

The nature of data set [2]: Dynamic vapor sorption (DVS) analysis. Here is the method:
DVS was measured using automated gravimetric vapor sorption analyzer equipped with Cahn D200 ultra-microbalance (DVS Intrinsic apparatus, Surface Measurement System Ltd., UK). First, a sample of 10-20 mg was put in a sample pan and hung on a hang-down wire, and measurement was started when the weight and humidity reached equilibrium. In one cycle, relative humidity was increased from 0% to 90% and then dropped back to 0%. Two cycles were carried out. The experiment was carried out in a way that the relative humidity was increased at 10% increment using a dm/dt method. The experiment was carried out at room temperature (25° C.)

A short description of data set [3]: Thermogravimetric analysis (TGA). On the procedure: The TGA was measured using Mettler Toledo TGA/DSC 1 module. About 4-8 mg of the sample is weighed and put into a 100 μL Al crucible (flat-bottomed aluminum crucibles). Then, TGA measurement is performed while the sample is heated from 30° C. to 350° C. at a rate of 10° C./min. During the measurement, nitrogen gas is supplied to the inside of the instrument at a rate of 80 mL/min to prevent the inflow of oxygen and other gases. Data collection and evaluation were performed using the software STARe.

For `CC(C)C(=O)N([C@H]1C[C@@H](C(=O)N2CCOCC2)N(C(=O)[C@@H]2CN(C(C)(C)C)C[C@H]2c2ccc(Cl)cc2)C1)[C@H]1CC[C@@H](C)CC1` [Example 1, N-((3S,5S)-1-((3S,4R)-1-(tert-butyl)-4-(4-chlorophenyl)pyrrolidine-3-carbonyl)-5-(morpholine-4-carbonyl)pyrrolidin-3-yl)-N-((1s,4R)-4-methylcyclohexyl)isobutyramide], the “chemical stability” value in data set [1] (accelerated (40° C., 75% RH) and harsh (80° C.) condition, 4 weeks) is reported as “showed chemical stability for 4 weeks”. Also, in data set [1] (accelerated condition (40° C., 75% RH) and closed state (harsh condition, 80° C.), until week 4), the “decrease in the content until week 4” value was “about 1.3%”. In addition, the “decrease in the content under the accelerated condition” value in data set [1] (accelerated condition, for 4 weeks) is given as “less than 1%”. In data set [1] (initial, before storage), the HPLC content, Initial worked out at 97.8%. Also, the “HPLC content, Accelerated condition (40° C./75% RH)” value in data set [1] (Day 3) was 97.51; in data set [1] (Week 1) it was 96.64; in data set [1] (Week 2), 97.73; in data set [1] (Week 4) it was 97.47. Besides, the “HPLC content, Harsh condition (80° C.)” value came to 97.46 in data set [1] (Day 3), 97.34 in data set [1] (Week 1), 96.94 in data set [1] (Week 2) and 96.47 in data set [1] (Week 4). Further, in data set [2] (DVS, 25° C., 0-90% RH, two cycles), the “total weight gain observed between 0-90% RH” value is reported as 0.2 % w/w. Further, the “physical change after DVS (XRPD pattern compared with initial compound)” value in data set [2] (XRPD after DVS analysis) is “no physical change occurred”. Besides, the “temperature up to which thermally stable” value in data set [3] (TGA, error of ±5° C.) is “up to 270 °C”. Further, the “weight loss in TGA before degradation” value in data set [3] (heated from 30° C. to 350° C. at 10° C./min) is “no weight loss was observed before degradation”.

(Values after US20240043407A1, “CRYSTALLINE FORM I OF MELANOCORTIN RECEPTOR AGONIST COMPOUND AND METHOD FOR PREPARING SAME” (LG CHEM, LTD., priority 2020, published 2024).)
